What was measured:
Assay in all cases: DSF 100 kinase selectivity screen;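 further: compound tested at 20 µM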
Format in all cases: binding
[1] = biological target: T1, ~100 representative kinases (Homo sapiens, UniProt P11309); conditions: protein PIM1; average of three replicates
T1 construct: Recombinant protein kinase domains with a concentration of 2 μM
How it was run: (§1)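 Each kinase domain, at 2 μM, is mixed with 20 μM test compound and SYPRO Orange in Hepes (20 mM, pH 7.5) with 500 mM NaCl. Temperature is then raised at 3°C/min and fluorescence-monitored unfolding yields the melting temperature change, ΔTm in degrees Celsius.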

[2] = biological target: T2, ~100 representative kinases (Homo sapiens, UniProt P15056); conditions: Protein BRAF; average of three replicates
T2 construct: Recombinant protein kinase domains with a concentration of 2 μM
How it was run: as §1

[3] = biological target: T3, ~100 representative kinases (Homo sapiens, UniProt P49674); conditions: Protein CSNK1E; average of three replicates
T3 construct: Recombinant protein kinase domains with a concentration of 2 μM
How it was run: as §1

[4] = biological target: T4, ~100 representative kinases (Homo sapiens, UniProt P52564); conditions: protein MAP2K6; average of three replicates
T4 construct: Recombinant protein kinase domains with a concentration of 2 μM
T4 sequence (P52564 1-334): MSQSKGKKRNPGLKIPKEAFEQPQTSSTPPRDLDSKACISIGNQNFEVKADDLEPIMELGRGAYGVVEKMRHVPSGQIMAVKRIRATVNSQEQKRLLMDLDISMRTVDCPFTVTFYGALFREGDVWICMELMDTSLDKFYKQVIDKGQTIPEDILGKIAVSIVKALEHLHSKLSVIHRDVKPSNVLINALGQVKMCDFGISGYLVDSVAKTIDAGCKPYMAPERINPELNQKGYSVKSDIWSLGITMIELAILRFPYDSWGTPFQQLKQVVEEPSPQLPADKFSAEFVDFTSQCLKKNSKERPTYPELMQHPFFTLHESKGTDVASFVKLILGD
How it was run: as §1

[5] = biological target: T5, ~100 representative kinases (Homo sapiens, UniProt P53355); conditions: Protein DAPK1; average of three replicates
T5 construct: Recombinant protein kinase domains with a concentration of 2 μM
How it was run: as §1

[6] = biological target: T6, ~100 representative kinases (Homo sapiens, UniProt P54753); conditions: Protein EPHB3A; average of three replicates
T6 construct: Recombinant protein kinase domains with a concentration of 2 μM
T6 sequence (P54753 34-998): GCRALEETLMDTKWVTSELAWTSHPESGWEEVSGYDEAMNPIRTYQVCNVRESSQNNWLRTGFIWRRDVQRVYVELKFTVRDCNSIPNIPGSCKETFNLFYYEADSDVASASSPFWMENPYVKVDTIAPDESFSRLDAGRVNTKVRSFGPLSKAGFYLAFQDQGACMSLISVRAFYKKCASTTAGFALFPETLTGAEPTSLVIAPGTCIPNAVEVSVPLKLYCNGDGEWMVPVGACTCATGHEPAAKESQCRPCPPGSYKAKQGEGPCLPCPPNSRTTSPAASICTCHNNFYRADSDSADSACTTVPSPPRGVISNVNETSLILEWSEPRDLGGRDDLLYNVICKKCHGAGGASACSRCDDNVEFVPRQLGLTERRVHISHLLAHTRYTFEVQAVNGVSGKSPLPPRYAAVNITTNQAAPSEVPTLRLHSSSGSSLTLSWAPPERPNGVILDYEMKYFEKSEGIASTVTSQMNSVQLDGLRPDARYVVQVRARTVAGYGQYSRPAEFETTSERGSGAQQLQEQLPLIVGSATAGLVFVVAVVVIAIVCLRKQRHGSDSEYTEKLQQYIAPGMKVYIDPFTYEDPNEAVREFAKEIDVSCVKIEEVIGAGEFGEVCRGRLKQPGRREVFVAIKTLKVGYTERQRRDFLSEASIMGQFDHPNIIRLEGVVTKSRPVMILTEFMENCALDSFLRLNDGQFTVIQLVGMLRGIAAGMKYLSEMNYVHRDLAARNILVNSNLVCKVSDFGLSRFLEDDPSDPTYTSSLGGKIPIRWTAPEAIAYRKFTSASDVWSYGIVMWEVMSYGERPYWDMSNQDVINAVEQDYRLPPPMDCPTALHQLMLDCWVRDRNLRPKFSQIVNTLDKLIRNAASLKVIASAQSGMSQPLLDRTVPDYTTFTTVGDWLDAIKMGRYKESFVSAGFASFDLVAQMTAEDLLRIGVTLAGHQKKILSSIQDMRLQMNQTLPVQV
How it was run: as §1

[7] = biological target: T7, ~100 representative kinases (Homo sapiens, UniProt Q00532); conditions: Protein CDKL1; average of three replicates
T7 construct: Recombinant protein kinase domains with a concentration of 2 μM
How it was run: as §1

[8] = biological target: T8, ~100 representative kinases (Homo sapiens, UniProt Q13554); conditions: Protein CAMK2B; average of three replicates
T8 construct: Recombinant protein kinase domains with a concentration of 2 μM
How it was run: as §1

[9] = biological target: T9, ~100 representative kinases (Homo sapiens, UniProt Q15418); conditions: Protein RPS6KA1; DSF; average of three replicates
T9 construct: Recombinant protein kinase domains with a concentration of 2 μM
How it was run: as §1

[10] = biological target: T10, ~100 representative kinases (Homo sapiens, UniProt Q9UEE5); conditions: Protein STK17A; DSF; average of three replicates
T10 construct: Recombinant protein kinase domains with a concentration of 2 μM
T10 sequence (Q9UEE5 1-414): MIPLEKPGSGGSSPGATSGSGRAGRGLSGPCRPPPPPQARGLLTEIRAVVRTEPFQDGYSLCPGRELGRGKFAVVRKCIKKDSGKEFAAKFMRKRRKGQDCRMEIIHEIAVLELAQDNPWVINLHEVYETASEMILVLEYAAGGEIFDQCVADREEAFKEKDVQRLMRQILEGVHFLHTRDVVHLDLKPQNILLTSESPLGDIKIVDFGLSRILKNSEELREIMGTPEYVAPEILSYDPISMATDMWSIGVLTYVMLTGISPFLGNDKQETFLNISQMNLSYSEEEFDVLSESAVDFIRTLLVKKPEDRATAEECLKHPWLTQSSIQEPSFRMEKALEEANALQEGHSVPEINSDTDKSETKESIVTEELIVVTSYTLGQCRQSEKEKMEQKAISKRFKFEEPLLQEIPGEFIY
How it was run: as §1

T9 sequence (Q15418 whole entry, the tested form may be a part): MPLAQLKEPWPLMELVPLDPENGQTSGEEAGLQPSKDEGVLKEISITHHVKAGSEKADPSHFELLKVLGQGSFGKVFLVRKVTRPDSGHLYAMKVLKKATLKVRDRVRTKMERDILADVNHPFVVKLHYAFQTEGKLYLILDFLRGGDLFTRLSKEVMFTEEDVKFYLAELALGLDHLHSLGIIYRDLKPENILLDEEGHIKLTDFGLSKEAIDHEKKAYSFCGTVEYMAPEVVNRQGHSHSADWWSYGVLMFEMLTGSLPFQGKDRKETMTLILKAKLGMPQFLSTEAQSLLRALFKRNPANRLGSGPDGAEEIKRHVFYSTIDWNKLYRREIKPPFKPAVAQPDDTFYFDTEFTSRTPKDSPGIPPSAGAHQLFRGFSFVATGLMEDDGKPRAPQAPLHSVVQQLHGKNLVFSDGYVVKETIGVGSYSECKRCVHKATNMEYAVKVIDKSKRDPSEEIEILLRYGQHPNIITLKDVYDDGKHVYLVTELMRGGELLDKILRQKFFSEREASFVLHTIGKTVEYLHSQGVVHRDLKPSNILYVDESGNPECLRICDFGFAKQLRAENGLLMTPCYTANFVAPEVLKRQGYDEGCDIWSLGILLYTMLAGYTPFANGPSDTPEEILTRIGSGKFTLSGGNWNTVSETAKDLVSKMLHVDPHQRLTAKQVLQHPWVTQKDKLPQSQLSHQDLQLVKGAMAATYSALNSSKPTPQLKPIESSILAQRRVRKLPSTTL
T7 sequence (Q00532 whole entry, the tested form may be a part): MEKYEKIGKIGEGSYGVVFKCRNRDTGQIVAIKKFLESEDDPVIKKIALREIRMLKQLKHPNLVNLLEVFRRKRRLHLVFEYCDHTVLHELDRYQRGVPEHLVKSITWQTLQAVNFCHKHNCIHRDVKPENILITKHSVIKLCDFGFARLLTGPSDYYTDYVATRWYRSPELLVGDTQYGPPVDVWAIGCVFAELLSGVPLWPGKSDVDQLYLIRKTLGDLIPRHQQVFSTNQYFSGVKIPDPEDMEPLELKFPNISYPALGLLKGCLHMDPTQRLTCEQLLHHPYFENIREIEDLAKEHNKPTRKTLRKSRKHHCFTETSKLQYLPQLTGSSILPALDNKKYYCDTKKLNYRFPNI
T8 sequence (Q13554 whole entry, the tested form may be a part): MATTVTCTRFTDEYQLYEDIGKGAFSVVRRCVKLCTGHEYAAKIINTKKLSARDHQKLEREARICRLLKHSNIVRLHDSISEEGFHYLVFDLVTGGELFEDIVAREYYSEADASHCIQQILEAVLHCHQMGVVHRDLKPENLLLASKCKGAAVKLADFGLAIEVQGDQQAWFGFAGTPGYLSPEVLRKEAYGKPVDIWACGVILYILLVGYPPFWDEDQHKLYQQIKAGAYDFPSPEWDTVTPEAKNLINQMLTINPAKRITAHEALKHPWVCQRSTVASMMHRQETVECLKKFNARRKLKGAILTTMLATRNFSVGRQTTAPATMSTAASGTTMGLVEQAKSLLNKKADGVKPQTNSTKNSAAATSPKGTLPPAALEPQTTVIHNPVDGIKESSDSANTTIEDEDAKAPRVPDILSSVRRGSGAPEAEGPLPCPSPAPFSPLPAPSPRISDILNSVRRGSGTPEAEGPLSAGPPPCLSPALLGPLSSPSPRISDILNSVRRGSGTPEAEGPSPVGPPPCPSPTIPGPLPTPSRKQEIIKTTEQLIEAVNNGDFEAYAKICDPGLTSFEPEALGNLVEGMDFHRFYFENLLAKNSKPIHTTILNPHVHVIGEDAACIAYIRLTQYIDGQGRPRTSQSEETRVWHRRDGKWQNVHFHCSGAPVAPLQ
T5 sequence (P53355 whole entry, the tested form may be a part): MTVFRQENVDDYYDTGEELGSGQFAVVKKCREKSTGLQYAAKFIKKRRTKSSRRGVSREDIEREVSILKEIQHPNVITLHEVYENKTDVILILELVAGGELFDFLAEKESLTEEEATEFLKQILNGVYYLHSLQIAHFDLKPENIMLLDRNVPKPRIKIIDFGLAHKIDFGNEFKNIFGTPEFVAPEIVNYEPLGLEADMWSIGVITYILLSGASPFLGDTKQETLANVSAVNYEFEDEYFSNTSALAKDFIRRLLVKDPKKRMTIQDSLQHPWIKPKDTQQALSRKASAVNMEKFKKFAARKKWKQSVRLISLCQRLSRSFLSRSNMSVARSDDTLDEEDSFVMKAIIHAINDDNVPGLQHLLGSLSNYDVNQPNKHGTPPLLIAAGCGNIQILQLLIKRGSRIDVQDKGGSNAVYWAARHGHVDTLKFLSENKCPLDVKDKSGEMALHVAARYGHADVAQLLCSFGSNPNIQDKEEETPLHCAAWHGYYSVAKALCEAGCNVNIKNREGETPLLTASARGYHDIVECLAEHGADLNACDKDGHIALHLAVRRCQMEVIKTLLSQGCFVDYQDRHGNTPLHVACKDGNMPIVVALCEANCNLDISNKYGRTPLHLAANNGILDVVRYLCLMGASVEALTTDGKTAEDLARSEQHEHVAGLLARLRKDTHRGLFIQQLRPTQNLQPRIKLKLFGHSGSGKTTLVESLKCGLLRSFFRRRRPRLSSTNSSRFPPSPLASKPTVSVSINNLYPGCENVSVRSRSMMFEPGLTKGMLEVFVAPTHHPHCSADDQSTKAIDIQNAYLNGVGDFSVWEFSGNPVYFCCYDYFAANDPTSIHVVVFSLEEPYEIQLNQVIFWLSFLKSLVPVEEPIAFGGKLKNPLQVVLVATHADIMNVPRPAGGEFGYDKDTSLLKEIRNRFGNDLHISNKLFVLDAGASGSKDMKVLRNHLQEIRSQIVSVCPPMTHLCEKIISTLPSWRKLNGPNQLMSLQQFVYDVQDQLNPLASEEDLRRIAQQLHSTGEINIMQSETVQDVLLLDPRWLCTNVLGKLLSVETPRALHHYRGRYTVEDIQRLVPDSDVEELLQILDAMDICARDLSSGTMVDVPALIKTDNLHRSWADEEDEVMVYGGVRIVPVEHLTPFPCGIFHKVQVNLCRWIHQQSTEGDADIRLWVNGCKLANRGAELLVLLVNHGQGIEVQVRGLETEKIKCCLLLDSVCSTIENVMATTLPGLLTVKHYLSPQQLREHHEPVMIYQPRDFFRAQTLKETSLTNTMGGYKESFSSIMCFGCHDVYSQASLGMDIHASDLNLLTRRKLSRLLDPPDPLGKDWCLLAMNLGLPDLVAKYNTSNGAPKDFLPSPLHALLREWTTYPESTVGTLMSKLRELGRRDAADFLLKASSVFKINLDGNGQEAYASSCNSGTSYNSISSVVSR
T3 sequence (P49674 whole entry, the tested form may be a part): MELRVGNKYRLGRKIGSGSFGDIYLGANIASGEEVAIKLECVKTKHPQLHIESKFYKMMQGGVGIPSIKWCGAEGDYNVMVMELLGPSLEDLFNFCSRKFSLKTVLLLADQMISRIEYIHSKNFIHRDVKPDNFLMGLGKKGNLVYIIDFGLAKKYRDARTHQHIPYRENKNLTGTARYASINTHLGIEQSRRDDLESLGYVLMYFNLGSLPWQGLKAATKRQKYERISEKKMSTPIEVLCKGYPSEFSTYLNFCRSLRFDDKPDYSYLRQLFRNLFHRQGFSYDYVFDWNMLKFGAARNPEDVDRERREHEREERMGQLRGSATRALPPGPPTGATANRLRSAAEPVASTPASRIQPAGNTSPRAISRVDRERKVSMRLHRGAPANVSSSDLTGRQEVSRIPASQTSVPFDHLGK
T2 sequence (P15056 whole entry, the tested form may be a part): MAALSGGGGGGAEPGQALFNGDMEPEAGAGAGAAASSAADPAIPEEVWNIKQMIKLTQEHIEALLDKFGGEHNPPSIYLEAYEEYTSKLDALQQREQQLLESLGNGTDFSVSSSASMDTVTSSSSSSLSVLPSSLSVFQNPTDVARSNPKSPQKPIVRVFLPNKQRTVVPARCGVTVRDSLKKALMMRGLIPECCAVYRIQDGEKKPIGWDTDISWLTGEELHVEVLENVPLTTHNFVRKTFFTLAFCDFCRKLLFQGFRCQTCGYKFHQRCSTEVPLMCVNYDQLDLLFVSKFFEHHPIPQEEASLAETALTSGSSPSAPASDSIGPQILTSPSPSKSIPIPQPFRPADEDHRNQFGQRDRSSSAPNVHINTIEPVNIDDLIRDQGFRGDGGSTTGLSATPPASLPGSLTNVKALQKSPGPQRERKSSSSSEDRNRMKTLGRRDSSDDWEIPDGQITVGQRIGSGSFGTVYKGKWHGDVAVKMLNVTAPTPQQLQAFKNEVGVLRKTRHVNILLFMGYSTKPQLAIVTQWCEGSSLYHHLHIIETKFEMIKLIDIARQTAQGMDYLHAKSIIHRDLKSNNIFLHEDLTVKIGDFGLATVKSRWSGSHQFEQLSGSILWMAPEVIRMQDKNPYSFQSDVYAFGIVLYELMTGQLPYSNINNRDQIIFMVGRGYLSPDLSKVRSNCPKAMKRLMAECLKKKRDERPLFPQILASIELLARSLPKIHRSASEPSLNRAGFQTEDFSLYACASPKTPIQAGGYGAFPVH
T1 sequence (P11309 whole entry, the tested form may be a part): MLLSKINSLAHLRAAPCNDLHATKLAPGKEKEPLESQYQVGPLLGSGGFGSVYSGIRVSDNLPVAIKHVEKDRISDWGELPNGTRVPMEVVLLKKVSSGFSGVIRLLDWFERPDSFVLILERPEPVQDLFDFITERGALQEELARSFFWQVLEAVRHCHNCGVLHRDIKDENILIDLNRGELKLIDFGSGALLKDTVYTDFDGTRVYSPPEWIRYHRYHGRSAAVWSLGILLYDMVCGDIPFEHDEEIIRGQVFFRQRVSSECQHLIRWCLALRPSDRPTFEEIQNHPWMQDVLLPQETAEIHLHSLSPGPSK

Compound | dTm [1] | dTm [2] | dTm [3] | dTm [4] | dTm [5] | dTm [6] | dTm [7] | dTm [8] | dTm [9] | dTm [10]
CC(=O)N1CCN(c2nc(Cl)nc3[nH]cc(-c4cccc(NC(=O)Nc5cc(C(C)(C)C)nn5-c5ccc(C)cc5)c4)c23)CC1 [Compound 31] | 3.25 K | 4.38 K | -1.75 K | 0.27 K | -1.54 K | -1.56 K | 5.56 K | -1.59 K | -0.67 K | -0.15 K
CCSc1nc(NC)c2c(-c3cccc(NC(=O)Nc4cc(C(C)(C)C)nn4-c4ccc(C)cc4)c3)c[nH]c2n1 [Compound 32] | 1.50 K | 0.90 K | -0.41 K | 0.13 K | -0.22 K | -3.33 K | 9.64 K | 0.33 K | 0.43 K | -0.0646 K
COc1cc(C(=O)N2CCOCC2)c(F)cc1Nc1nc(N(C)C)c2c(Cl)c[nH]c2n1 [Compound 36] | -0.51 K | -0.49 K | 4.43 K | 9.56 K | 3.45 K | -1.35 K | 0.37 K | 2.02 K | 1.99 K | 0.25 K
COc1cc(S(C)(=O)=O)ccc1Nc1nc(N(C)C)c2c(Cl)c[nH]c2n1 [Compound 37] | -0.49 K | 0.14 K | 1.77 K | 5.52 K | 0.93 K | -1.89 K | 0.44 K | -0.66 K | 0.36 K | -0.19 K
COc1cc2c(Oc3ccc(NC(=O)C4(C(=O)Nc5ccc(F)cc5)CC4)cc3F)ccnc2cc1OCCCN1CCOCC1 [Foretinib, reference compound] | 1.41 K | 6.96 K | 3.48 K | 2.25 K | -0.15 K | 13.52 K | 1.22 K | 0.83 K | -0.88 K | -0.14 K

Source: publication PMC12136037, “Type II kinase inhibitors that target Parkinson’s disease–associated LRRK2” (Science Advances, 2025)
